The target in the first assay is T1, Cloned Human Dopamine D3 Receptors (Homo sapiens, UniProt P35462).
T1 construct: expressed in transfected cells; membrane homogenate
T1 sequence (P35462 whole entry): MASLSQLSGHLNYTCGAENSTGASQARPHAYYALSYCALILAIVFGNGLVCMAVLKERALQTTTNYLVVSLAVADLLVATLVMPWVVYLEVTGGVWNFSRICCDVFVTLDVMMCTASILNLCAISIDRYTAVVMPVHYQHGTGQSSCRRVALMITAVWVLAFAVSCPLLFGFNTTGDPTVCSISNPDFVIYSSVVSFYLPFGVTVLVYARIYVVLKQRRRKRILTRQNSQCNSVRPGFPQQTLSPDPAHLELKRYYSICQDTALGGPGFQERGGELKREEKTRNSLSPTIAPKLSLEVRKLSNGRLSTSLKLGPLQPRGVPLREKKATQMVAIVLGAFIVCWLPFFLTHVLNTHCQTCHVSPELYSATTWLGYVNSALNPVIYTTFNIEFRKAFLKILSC
The assay can be described thus: [N-Methyl-3H]Spiroperidol binding to cloned human dopamine D3 receptors. Particulars: Table 2; unit inferred; read-out: d3Ki. In short, it runs like this:
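Membranes from CHO cells stably expressing human D3 receptor, homogenised in 10% DMSO and stored at -80°C. Binding uses [N-methyl-3H]spiroperidol in Tris buffer, pH 7.7.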
For the compound `CC1CCCC(NC(=O)[C@@H]2C[C@H]2CN2CCN(c3csc4cc(C(F)(F)F)ccc34)CC2)C1` (stereo partly shown) [compound 826884], the Ki was determined as 15.2 nM.

As for `CN(C(=O)[C@@H]1C[C@H]1CN1CCN(c2csc3cc(C(F)(F)F)ccc23)CC1)C1CCCCC1` [compound 826885], the Ki turned out to be 20.3 nM.

For the compound `O=C([C@@H]1C[C@H]1CN1CCN(c2csc3cc(C(F)(F)F)ccc23)CC1)N(c1ccccc1)C1CCCCC1` [compound 826886], the Ki was 136 nM.

As to `C[C@H]1CC[C@H](NC(=O)CCCN2CCN(c3csc4cc(C(F)(F)F)ccc34)CC2Cc2ccccc2)CC1` (stereo partly shown) [compound 827055], the Ki was 792 nM.

The assay is the same for the next values; noted with them: Table 2 part the 10th table; read-out: d3Ki.
Regarding `CCOC(=O)C1CCN(C(=O)[C@@H]2C[C@H]2CN2CCCN(c3csc4cc(F)ccc34)CC2)CC1` [compound 826871], the Ki is 10.7 nM.

Consider `CC1CCCCN1C(=O)[C@@H]1C[C@H]1CN1CCCN(c2csc3cc(F)ccc23)CC1` (stereo partly shown) [compound 826873], for which the Ki was determined as 1.31 nM.

With `CC1CCN(C(=O)[C@@H]2C[C@H]2CN2CCCN(c3csc4cc(F)ccc34)CC2)CC1` [compound 826874], the Ki came out at 1.72 nM.

For the compound `CC1CCCN(C(=O)[C@@H]2C[C@H]2CN2CCCN(c3csc4cc(F)ccc34)CC2)C1` (stereo partly shown) [compound 826875], the Ki turned out to be 2.79 nM.

Take `O=C([C@@H]1C[C@H]1CN1CCCN(c2csc3cc(F)ccc23)CC1)N1CCC(N2CCCC2)CC1` [compound 826876]: the Ki turned out to be 2.72 nM.

In the case of `CC1(C)CCCN(C(=O)[C@@H]2C[C@H]2CN2CCCN(c3csc4cc(F)ccc34)CC2)C1` [compound 826877], the Ki was found to be 4.72 nM.

In the case of `CC1CC(C)CN(C(=O)[C@@H]2C[C@H]2CN2CCCN(c3csc4cc(F)ccc34)CC2)C1` (stereo partly shown) [compound 826878], the Ki stood at 7.95 nM.

Consider `O=C([C@@H]1C[C@H]1CN1CCCN(c2csc3cc(F)ccc23)CC1)N1CCCC1` [compound 826879], for which the Ki was 1.59 nM.

Consider `CC1CCCN1C(=O)[C@@H]1C[C@H]1CN1CCCN(c2csc3cc(F)ccc23)CC1` (stereo partly shown) [compound 826882], for which the Ki stood at 2.93 nM.

For the compound `CN(C)C1CCN(C(=O)[C@@H]2C[C@H]2CN2CCCN(c3csc4cc(F)ccc34)CC2)C1` (stereo partly shown) [compound 826883], the Ki stood at 13.4 nM.

In the case of `CC1(C)CC2CC(C)(CN2C(=O)[C@@H]2C[C@H]2CN2CCN(c3csc4cc(C(F)(F)F)ccc34)CC2)C1` (stereo partly shown) [compound 826896], the Ki was 89.5 nM.

As for `CCOC(=O)C1CCN(C(=O)[C@@H]2C[C@H]2CN2CCN(c3csc4cc(C(F)(F)F)ccc34)CC2)CC1` [compound 826899], the Ki turned out to be 45.5 nM.

In the case of `O=C([C@@H]1C[C@H]1CN1CCN(c2csc3cc(C(F)(F)F)ccc23)CC1)N1CCC(O)(c2ccc(Cl)cc2)CC1` [compound 826900], the Ki turned out to be 181 nM.

As for `O=C([C@@H]1C[C@H]1CN1CCN(c2csc3cc(C(F)(F)F)ccc23)CC1)N1CCCC(O)C1` (stereo partly shown) [compound 826902], the Ki amounted to 13.1 nM.

For the compound `O=C([C@@H]1C[C@H]1CN1CCN(c2csc3cc(C(F)(F)F)ccc23)CC1)N1CCC(n2c(=O)[nH]c3ccccc32)CC1` [compound 826903], the Ki is 7.47 nM.

Consider `NC(=O)C1CCCN(C(=O)[C@@H]2C[C@H]2CN2CCN(c3csc4cc(C(F)(F)F)ccc34)CC2)C1` (stereo partly shown) [compound 826904], for which the Ki was found to be 39.4 nM.

`CC1CCCCN1C(=O)[C@@H]1C[C@H]1CN1CCN(c2csc3cc(C(F)(F)F)ccc23)CC1` (stereo partly shown) [compound 826905]: the Ki amounted to 14.5 nM.

Regarding `CC1CCN(C(=O)[C@@H]2C[C@H]2CN2CCN(c3csc4cc(C(F)(F)F)ccc34)CC2)CC1` [compound 826906], the Ki amounted to 39.5 nM.

As to `CC1CCCN(C(=O)[C@@H]2C[C@H]2CN2CCN(c3csc4cc(C(F)(F)F)ccc34)CC2)C1` (stereo partly shown) [compound 826907], the Ki worked out at 18.8 nM.

Turning to `CCN(CC)C(=O)C1CCCN(C(=O)[C@@H]2C[C@H]2CN2CCN(c3csc4cc(C(F)(F)F)ccc34)CC2)C1` (stereo partly shown) [compound 826908], the Ki stood at 7.06 nM.

Turning to `CCOC(=O)C1CCCN(C(=O)[C@@H]2C[C@H]2CN2CCN(c3csc4cc(C(F)(F)F)ccc34)CC2)C1` (stereo partly shown) [compound 826909], the Ki came out at 28.9 nM.

Regarding `O=C([C@@H]1C[C@H]1CN1CCN(c2csc3cc(C(F)(F)F)ccc23)CC1)N1CCC(N2CCCCC2)CC1` [compound 826910], the Ki was determined as 17.5 nM.

Regarding `O=C([C@@H]1C[C@H]1CN1CCN(c2csc3cc(C(F)(F)F)ccc23)CC1)N1CCC(O)(c2ccccc2)CC1` [compound 826911], the Ki was 93 nM.

`CC1(C)CCCN(C(=O)[C@@H]2C[C@H]2CN2CCN(c3csc4cc(C(F)(F)F)ccc34)CC2)C1` [compound 826912]: the Ki came to 58.5 nM.

Regarding `CC1CC(C)CN(C(=O)[C@@H]2C[C@H]2CN2CCN(c3csc4cc(C(F)(F)F)ccc34)CC2)C1` (stereo partly shown) [compound 826913], the Ki worked out at 86.1 nM.

On to `O=C([C@@H]1C[C@H]1CN1CCN(c2csc3cc(C(F)(F)F)ccc23)CC1)N1CCC(O)C1` (stereo partly shown) [compound 826914], for which the Ki came out at 101 nM.

Take `O=C([C@@H]1C[C@H]1CN1CCN(c2csc3cc(C(F)(F)F)ccc23)CC1)N1CCC[C@H]1CNc1ccccc1` [compound 826916]: the Ki was 157 nM.

As for `COC[C@@H]1CCCN1C(=O)[C@@H]1C[C@H]1CN1CCN(c2csc3cc(C(F)(F)F)ccc23)CC1` [compound 826917], the Ki is 196 nM.

Take `CC1CCCN1C(=O)[C@@H]1C[C@H]1CN1CCN(c2csc3cc(C(F)(F)F)ccc23)CC1` (stereo partly shown) [compound 826918]: the Ki is 30.3 nM.

With `Cc1cccc(C)c1NC[C@@H]1CCCN1C(=O)[C@@H]1C[C@H]1CN1CCN(c2csc3cc(C(F)(F)F)ccc23)CC1` [compound 826919], the Ki was determined as 329 nM.

Take `O=C([C@@H]1C[C@H]1CN1CCN(c2csc3cc(C(F)(F)F)ccc23)CC1)N1CCC[C@H]1CO` [compound 826920]: the Ki turned out to be 67.6 nM.

On to `CC(=O)N(C)C1CCN(C(=O)[C@@H]2C[C@H]2CN2CCN(c3csc4cc(C(F)(F)F)ccc34)CC2)C1` (stereo partly shown) [compound 826921], for which the Ki was determined as 183 nM.

Turning to `CC(=O)N[C@@H]1CCN(C(=O)[C@@H]2C[C@H]2CN2CCN(c3csc4cc(C(F)(F)F)ccc34)CC2)C1` [compound 826922], the Ki came to 183 nM.

As for `COC[C@H]1CCCN1C(=O)[C@@H]1C[C@H]1CN1CCN(c2csc3cc(C(F)(F)F)ccc23)CC1` [compound 826923], the Ki is 141 nM.

For `CN(C)[C@H]1CCN(C(=O)[C@@H]2C[C@H]2CN2CCN(c3csc4cc(C(F)(F)F)ccc34)CC2)C1` [compound 826926], the Ki turned out to be 86.5 nM.

Turning to `CC1CCC(C)N1C(=O)[C@@H]1C[C@H]1CN1CCN(c2csc3cc(C(F)(F)F)ccc23)CC1` (stereo partly shown) [compound 826928], the Ki stood at 11.2 nM.

`O=C(CCCN1CCN(c2csc3cc(C(F)(F)F)ccc23)CC1Cc1ccccc1)N1CCC(O)CC1` (stereo not shown) [compound 827063]: the Ki is 373 nM.

Turning to `CC1CCN(C(=O)CCCN2CCN(c3csc4cc(C(F)(F)F)ccc34)CC2Cc2ccccc2)CC1` (stereo not shown) [compound 827065], the Ki is 168 nM.

On to `CC1CCCN(C(=O)CCCN2CCN(c3csc4cc(C(F)(F)F)ccc34)CC2Cc2ccccc2)C1` (stereo not shown) [compound 827066], for which the Ki stood at 209 nM.

Consider `O=C(CCCN1CCN(c2csc3cc(C(F)(F)F)ccc23)CC1Cc1ccccc1)N1CCC(N2CCCC2)CC1` (stereo not shown) [compound 827067], for which the Ki is 268 nM.

Still in this assay, the particulars now being: d3Ki, Table 2 part the 10th table.
Turning to `O=C1CCN(C(=O)[C@@H]2C[C@H]2CN2CCN(c3csc4cc(C(F)(F)F)ccc34)CC2)CC1` [compound 826901], the Ki amounted to 42.4 nM.

The assay is the same for the next values; noted with them: read-out: d3Ki.
In the case of `CC[C@H]1CC[C@H](NC(=O)[C@@H]2C[C@H]2CN2CCCN(c3csc4cc(F)ccc34)CC2)CC1` [compound 826866], the Ki was determined as 1.24 nM.

`CC1CCCC(NC(=O)[C@@H]2C[C@H]2CN2CCCN(c3csc4cc(F)ccc34)CC2)C1` (stereo partly shown) [compound 826867]: the Ki is 1.89 nM.

Regarding `CN(C(=O)[C@@H]1C[C@H]1CN1CCCN(c2csc3cc(F)ccc23)CC1)C1CCCCC1` [compound 826868], the Ki came to 3.49 nM.

In the case of `CCN(C(=O)[C@@H]1C[C@H]1CN1CCCN(c2csc3cc(F)ccc23)CC1)C1CCCCC1` [compound 826869], the Ki turned out to be 6.75 nM.

As to `O=C([C@@H]1C[C@H]1CN1CCCN(c2csc3cc(F)ccc23)CC1)N(CCO)C1CCCCC1` [compound 826870], the Ki was determined as 7.4 nM.

On to `O=C(NC1CCCC1)[C@@H]1C[C@H]1CN1CCCN(c2csc3cc(F)ccc23)CC1` [compound 826880], for which the Ki was 2.86 nM.

On to `O=C(NC1CCCCC1)[C@@H]1C[C@H]1CN1CCCN(c2csc3cc(F)ccc23)CC1` [compound 826881], for which the Ki is 2.38 nM.

As to `O=C(NNC1CCCCC1)[C@@H]1C[C@H]1CN1CCN(c2csc3cc(C(F)(F)F)ccc23)CC1` [compound 826887], the Ki was determined as 83.8 nM.

`CC1(C)C2CCC1(C)C(NC(=O)[C@@H]1C[C@H]1CN1CCN(c3csc4cc(C(F)(F)F)ccc34)CC1)C2` (stereo partly shown) [compound 826890]: the Ki worked out at 38 nM.

In the case of `CC(C)[C@@H]1CC[C@@H](C)C[C@H]1NC(=O)[C@@H]1C[C@H]1CN1CCN(c2csc3cc(C(F)(F)F)ccc23)CC1` [compound 826891], the Ki was 263 nM.

`O=C(N[C@H]1CCCC[C@@H]1O)[C@@H]1C[C@H]1CN1CCN(c2csc3cc(C(F)(F)F)ccc23)CC1` [compound 826892]: the Ki worked out at 25.9 nM.

`CC1CC(NC(=O)[C@@H]2C[C@H]2CN2CCN(c3csc4cc(C(F)(F)F)ccc34)CC2)CC(C)(C)C1` (stereo partly shown) [compound 826893]: the Ki stood at 20.4 nM.

As for `CCN(C(=O)[C@@H]1C[C@H]1CN1CCN(c2csc3cc(C(F)(F)F)ccc23)CC1)C1CCCCC1` [compound 826894], the Ki was 35 nM.

As to `O=C([C@@H]1C[C@H]1CN1CCN(c2csc3cc(C(F)(F)F)ccc23)CC1)N(CCO)C1CCCCC1` [compound 826895], the Ki is 48.8 nM.

Take `CCOC(=O)[C@H]1CCCC[C@H]1NC(=O)[C@@H]1C[C@H]1CN1CCN(c2csc3cc(C(F)(F)F)ccc23)CC1` [compound 826897]: the Ki was determined as 128 nM.

Consider `CCOC(=O)[C@H]1CCCC[C@@H]1NC(=O)[C@@H]1C[C@H]1CN1CCN(c2csc3cc(C(F)(F)F)ccc23)CC1` [compound 826898], for which the Ki is 50.5 nM.

These data come from patent EP1935887A1, “Heterocyclic substituted carbonyl derivatives and their use as dopamine D3 receptor ligands” (Aventis Pharmaceuticals Inc., priority 2001, dated 2002).
